Format in all cases: in vivo
Data set [1] relates to smaller brown planthopper (Laodelphax striatellus). In words: Insecticidal test against the smaller brown planthopper (rice seedling immersion). The note with it: 500 ppm, rice seedling immersed 30 seconds, third instar nymphs, eight days after. An excerpt:
The present inventive compound was dispersed in water to adjust the concentration to 500 ppm and a rice seedling was immersed therein for 30 seconds; after air dried, the seedling was put in a test tube, 10 third instar nymphs were inoculated and the test tube was sealed with a cotton plug. Eight days after, the alive and dead insects were counted to calculate the corrected mortality according to the following equation and the insecticidal effect was judged according to the criterion shown below.
(§1) The Comparative test compound was tested in the same way, and the corrected mortality was calculated and judged.
(§2) [formula] • Criterion: A: Corrected mortality 100% • B: Corrected mortality 99%-90% • C: Corrected mortality 89%-80% • D: Corrected mortality 79%-50%

The subject of data set [2] is diamond back moth (Plutella xylostella). The experiment in a line: Insecticidal test against the diamond back moth (Chinese cabbage seedling with eggs, immersion). The note with it: 500 ppm, seedling with eggs immersed about 30 seconds, 25° C., six days after immersion. As for the experimental part:
The adult diamond back moths were released and allowed to oviposit on a Chinese cabbage seedling. Two days after the release, the seedling having the eggs deposited thereon was immersed for about 30 seconds in a liquid chemical prepared by diluting a preparation containing the present inventive compound as an active ingredient to adjust the concentration to 500 ppm. After air dried, it was allowed to stand in a room thermostatted at 25° C. Six days after the immersion, the alive insects were counted. The corrected mortality was calculated according to the following equation and the insecticidal effect was judged according to the criterion shown below. The test was carried out with triplicate groups.
as §1, §2

Data set [3] relates to green peach aphid (Myzus persicae). In words: Control value test against the green peach aphid (foliar spray on Chinese cabbage). As to conditions: 500 ppm spray on stems and leaves of Chinese cabbage, 6th day after spray. An excerpt:
Chinese cabbage was planted in plastic pots with a diameter of 8 cm and a height of 8 cm to breed green peach aphids, and the number of the infesting aphids in each pot was investigated. The present inventive compound was dispersed in water and diluted to a 500 ppm chemical solution, and the chemical solution was sprayed on the stems and leaves of the Chinese cabbage plants planted in the pots. After air drying, the pots were kept in a greenhouse. On the 6th day after the spray of the chemical solution, the number of the green peach aphids infesting on each Chinese cabbage plant was counted and the control value was calculated on the following equation, whereby the effect was judged according to the criterion below.
The Comparative test compound was tested in the same way, and the control value was calculated and judged.
[formula] • Ta: number of infestants before spraying in the treated group, • T: number of infestants after spraying in the treated group, • Ca: number of infestants before spraying in the untreated group, • C: number of infestants after spraying in the untreated group.
• A: Control value 100% • B: Control value 99-90% • C: Control value 89-80% • D: Control value 79-50%

Data set [4] concerns common cutworm (Spodoptera litura). The experiment in a line: Insecticidal test against the common cutworm (cabbage leaf dip). The note with it: 500 ppm, cabbage leaf dipped about 30 seconds, second-instar larvae, 25° C., eight days after inoculation. As for the experimental part:
A piece of cabbage leaf (cultivar; Shikidori) was dipped for about 30 seconds in a chemical solution prepared by diluting a preparation containing the present inventive compound as an active ingredient to adjust the concentration to 500 ppm. After air dried, it was placed in a plastic Petri dish with a diameter of 9 cm and inoculated with second-instar larvae of common cutworm, after which the dish was closed and then allowed to stand in a room thermostatted at 25° C. Eight days after the inoculation, the number of the alive insects were counted. The corrected mortality was calculated according to the following equation and the insecticidal effect was judged according to the following criterion. The test was carried out with triplicate groups of 10 insects.
as §1, §2

For data set [5], the system named is Western honeybees (Apis mellifera). In words: Safety test for the Western honeybee (oral acute toxicity test). As for the experimental part:
Seven to ten adult Western honeybees (Apis mellifera) were released in a plastic cage (8 cm×12 cm×20 cm), and after fasting for 2 hours, they were oral administered, using a 1.5 ml microtube, with a 50% sucrose solution as a test bait containing a chemical solution of a predetermined concentration. Four hours after the administration, the test bait was taken out, and the amount of the compound taken per animal was calculated from the remaining amount. At the same time, the animals were fed with a sufficient amount of 50% sucrose solution, maintained at 25° C., H55-75%, 16L8D. The numbers of dead and abnormal insects were counted after 24, 48 and 96 hours to calculate the median lethal dose (LD50 value). The untreated group was fed with a 50% sucrose solution […] and was maintained under the same conditions as the chemical-treated group.

Each structure is given as a SMILES string.

For the compound `C[C@H](NC(=O)c1cc(C(F)(F)F)cc(C(F)(F)F)c1)c1ncnn1-c1ncccn1` [comparative compound, (S)—N-(1-(1-(pyrimidin-2-yl)-1H-1,2,4-triazol-5-yl)ethyl)-3,5-bis(trifluoromethyl)benzamide, reference compound], the “corrected mortality (activity class)” value in data set [1], in data set [2] and in data set [4] was “B or higher” throughout. For the same compound, the “control value (activity class)” value in data set [3] is recorded as “B or higher”.

Consider `C[C@H](NC(=O)c1cc(C(F)(F)F)cc(C(F)(F)F)c1)c1ncnn1-c1cc(C(F)(F)F)ncn1` [present inventive compound, (S)—N-(1-(1-(6-trifluoromethylpyrimidin-4-yl)-1H-1,2,4-triazol-5-yl)ethyl)-3,5-bis(trifluoromethyl)benzamide], for which the “corrected mortality (activity class)” value in data set [1], in data set [2] and in data set [4] was “B or higher” in each case. The “control value (activity class)” value in data set [3] is given as “B or higher”. In data set [5] (from oral LD50 values after 96 hours), the “improvement in safety for the Western honeybee compared with the comparative compound” value is on record as “more than 200 times”. The “LD50 value for one adult honeybee” value in data set [5] (oral, after 96 hours, per adult honeybee) was found to be 2.04 µg.

Values taken from patent US20250228241A1, “P[…] COMPOUND OR SALT THEREOF, PEST CONTROL AGENT CONTAINING SAID COMPOUND AS ACTIVE INGREDIENT, AND PEST CONTROL METHOD” (NIHON NOHYAKU CO., LTD., priority 2021, published 2025).
